pIC50: −log10 of the molar value. Counter-ions that a name gives are not always drawn. Like-named read-outs stand apart in the source and are kept apart here.
Tests used:
[1] = molecular target: T1, Pim-1 stably transfected into the U2OS human osteogenic sarcoma line (Homo sapiens, UniProt P11309); test: Pim cell assay, phospho-BAD normalized against total BAD, U2OS stably transfected with Pim-1; assay type: cell-based
T1 construct: expressed in transfected cells; host or cells: U2OS human osteogenic sarcoma line
T1 sequence (P11309 whole entry): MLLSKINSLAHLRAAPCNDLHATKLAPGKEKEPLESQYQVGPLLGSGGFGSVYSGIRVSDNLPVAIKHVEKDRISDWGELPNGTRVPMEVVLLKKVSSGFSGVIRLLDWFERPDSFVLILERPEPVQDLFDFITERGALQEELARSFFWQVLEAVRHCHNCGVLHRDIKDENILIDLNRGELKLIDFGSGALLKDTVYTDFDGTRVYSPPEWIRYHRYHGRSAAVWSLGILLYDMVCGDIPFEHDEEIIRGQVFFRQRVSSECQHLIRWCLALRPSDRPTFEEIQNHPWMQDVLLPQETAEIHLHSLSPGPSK
Experimental: (§1) The cell lines used in the assay were generated by the stable transfection of either Pim-1 or Pim-2 into the U2OS human osteogenic sarcoma line. The assay for determination of the Pim activity in the engineered U2OS cell lines measures levels of phospho-BAD normalized against total BAD protein levels. It was conducted as follows:
(§2) The adherent cells were dissociated from the flasks using non-enzymatic cell dissociation solution (Sigma # C5914). […] The cells were then incubated overnight at 37° C., 5% CO2.
(§3) In addition to the 10-point dosing curve of the test compound, DMSO alone was run as the high control.
(§4) This dilution in DMSO was then diluted again into cell growth medium. Aliquots (12 uL) of the compound diluted in growth medium were then transferred to the appropriate wells of the 96-well plates containing cells to yield a final DMSO concentration of 0.3%.
(§5) The cell plates containing lysis buffer were then immediately stored at −70° C.
(§6) These prepared lysates were then assayed for phospho and total BAD according to the manufacturer's protocols (Meso Scale Diagnostics, Cat# K15103C-3 & # K15103D-3). The plates were read on the MSD Sector Imager 6000, and results were calculated according to the assay protocols ((% Phosphoprotein=((2×Phospho signal)/(Phospho signal+Total signal))×100)).

[2] = molecular target: T2, Pim-2 stably transfected into the U2OS human osteogenic sarcoma line (Homo sapiens, UniProt Q9P1W9); test: Pim cell assay, phospho-BAD normalized against total BAD, U2OS stably transfected with Pim-2; assay type: cell-based
T2 construct: expressed in transfected cells; host or cells: U2OS human osteogenic sarcoma line
T2 sequence (Q9P1W9 whole entry): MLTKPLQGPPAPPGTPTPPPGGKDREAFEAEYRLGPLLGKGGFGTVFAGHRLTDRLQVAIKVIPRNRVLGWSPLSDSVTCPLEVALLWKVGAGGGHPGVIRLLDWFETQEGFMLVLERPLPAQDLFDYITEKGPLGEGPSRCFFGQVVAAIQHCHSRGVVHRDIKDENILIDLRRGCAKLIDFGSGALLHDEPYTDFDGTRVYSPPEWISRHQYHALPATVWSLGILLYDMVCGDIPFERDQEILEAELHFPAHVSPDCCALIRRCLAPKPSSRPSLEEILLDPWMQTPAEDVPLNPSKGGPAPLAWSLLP
Experimental: as §1, §2, §3, §4, §5, §6

[3] = molecular target: T3, full length recombinant Pim-2 protein (Homo sapiens, UniProt Q9P1W9); test: Pim-2 enzyme assay (HTRF, phosphorylation of biotinylated-BAD (S112) peptide); assay type: biochemical; conditions: read-out: Pim2_IC50
T3 construct: by full length recombinant Pim-1, Pim-2, or Pim-3 protein; hexahistidine tag followed by a thrombin cleavage site (N); made in house; host or cells: Sf9 (baculovirus) or E. coli (pET28)
T3 sequence (Q9P1W9 whole entry): as above
Summary of the method: (§7)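 Kinase: full-length human Pim-1/Pim-2, His6-thrombin tagged. Substrate biotin-BAD (S112) peptide. Buffer 60 mM Hepes pH 7.0, 0.05% BSA, 2 mM DTT. Stop 3 mM EDTA. Detection HTRF (Eu anti-pBAD/SA-APC). IC50 by 4-parameter logistic on POC.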

[4] = molecular target: T4, full length recombinant Pim-1 protein (Homo sapiens, UniProt P11309); test: Pim-1 enzyme assay (HTRF, phosphorylation of biotinylated-BAD (S112) peptide); assay type: biochemical; conditions: read-out: Pim_1_IC50
T4 construct: by full length recombinant Pim-1, Pim-2, or Pim-3 protein; hexahistidine tag followed by a thrombin cleavage site (N); made in house; host or cells: Sf9 (baculovirus) or E. coli (pET28)
T4 sequence (P11309 whole entry): as the sequence (P11309 whole entry) above
Summary of the method: as §7

[5] = U2OS cells stably transfected with Pim-1, phospho-BAD, high dose […], read-out: Pim1_Cell_IC50
[6] = U2OS cells stably transfected with Pim-2, phospho-BAD, high dose […], read-out: Pim2_Cell_IC50
[7] = U2OS stably transfected with Pim-1, phospho-BAD normalized against total BAD, 29 min incubation, read-out: Pim1_Cell_IC50_
[8] = U2OS stably transfected with Pim-2, phospho-BAD normalized against total BAD, 29 min incubation, read-out: Pim2_Cell_IC50_

Structure (SMILES) | pIC50 [1, 5] | pIC50 [2, 6] | pIC50 ([3]; enzyme assay, Pim-2) | pIC50 ([4]; enzyme assay, Pim-1) | pIC50 [1, 7] | pIC50 [2, 8] | pIC50 [3] | pIC50 [4]
NC1CCN(c2cncc(-c3n[nH]c4ccc(-c5cnc6[nH]ccc6c5)cc34)n2)CC1 [Example 57, 1-(6-(5-(1H-pyrrolo[2,3-b]pyridin-5-yl)-1H-indazol-3-yl)-2-pyrazinyl)-4-piperidinamine] | 6.22 | < 4.50 | 8.00 | 9.00 |  |  |  | 
COc1cncc(-c2ccc3[nH]nc(-c4cncc(N5CCC(N)CC5)n4)c3c2)c1 [Example 79, 1-(6-(5-(5-methoxy-3-pyridinyl)-1H-indazol-3-yl)-2-pyrazinyl)-4-piperidinamine] | 6.74 | 5.41 | 8.05 | 9.00 |  |  |  | 
c1cc(-c2ccc3[nH]nc(-c4cncc(O[C@@H]5CCCNC5)n4)c3c2)nc(NC2CC2)n1 [Example 242, N-cyclopropyl-4-(3-(6-((3R)-3-piperidinyloxy)-2-pyrazinyl)-1H-indazol-5-yl)-2-pyrimidinamine] |  |  |  |  | 6.43 | 4.50 | 6.97 | 8.30
c1cc2[nH]nc(-c3cncc(C4CC4)n3)c2cc1-c1cncc(C2CC2)n1 [Example 244, 3,5-bis(6-cyclopropyl-2-pyrazinyl)-1H-indazole] |  |  |  |  | 6.77 | < 5.00 | 8.52 | 9.00
c1cc2[nH]cc(-c3cncc(C4CC4)n3)c2cc1-c1cncc(C2CC2)n1 [Example 245, 3,5-bis(6-cyclopropyl-2-pyrazinyl)-1H-indole] |  |  |  |  | 5.44 | < 4.50 | 6.46 | 7.55
c1cc2[nH]nc(-c3cncc(O[C@H]4CNCCC45CC5)n3)c2cc1C1CCOCC1 [Example 264, 3-(6-((4R)-6-azaspiro[25]oct-4-yloxy)-2-pyrazinyl)-5-(tetrahydro-2H-pyran-4-yl)-1H-indazole-2,2,2-trifluoroacetate] |  |  |  |  | 6.56 | < 5.00 | 7.82 | 8.22
NC1CCN(c2nc(-c3c[nH]c4ccc(-c5c(F)cccc5F)cc34)cc(=O)[nH]2)CC1 [Example 277, 2-(4-aminopiperidin-1-yl)-6-(5-(2,6-difluorophenyl)-1H-indol-3-yl)pyrimidin-4(3H)-one] |  |  |  |  | 5.61 | < 4.50 | 8.70 | 9.00
CC(C)Nc1nc(-c2c[nH]c3ccc(-c4cncc(C5CC5)n4)cc23)cc(=O)[nH]1 [Example 287, 6-(5-(6-cyclopropylpyrazin-2-yl)-1H-indol-3-yl)-2-(isopropylamino) pyrimidin-4(3H)-one] |  |  |  |  | 5.88 | < 4.50 | 7.06 | 8.22
COc1ccc(-c2ccc3[nH]cc(-c4cncc(O[C@@H]5CCCNC5)n4)c3c2)cc1F [Example 292] |  |  |  |  | 6.19 | ≤ 4.45 | 7.72 | 8.40
COc1cc(OC)cc(-c2ccc3[nH]cc(-c4cncc(O[C@@H]5CCCNC5)n4)c3c2)c1 [Example 294] |  |  |  |  | 6.28 | 5.02 | 7.59 | 8.15
Fc1cnccc1-c1ccc2[nH]cc(-c3cncc(O[C@@H]4CCCNC4)n3)c2c1 [Example 297, 5-(3-fluoro-4-pyridinyl)-3-(6-((3R)-3-piperidinyloxy)-2-pyrazinyl)-1H-indole] |  |  |  |  | 6.78 | 5.07 | 8.15 | 8.52
c1cc(-c2ccc3[nH]cc(-c4cncc(O[C@@H]5CCCNC5)n4)c3c2)nc(N2CCNCC2)c1 [Example 299] |  |  |  |  | 5.90 | < 4.50 | 6.64 | 8.52
OCc1cccc(-c2ccc3[nH]cc(-c4cncc(O[C@@H]5CCCNC5)n4)c3c2)c1 [Example 315] |  |  |  |  | 6.35 | 5.04 | 7.62 | 8.15
OCc1ccc(-c2ccc3[nH]cc(-c4cncc(O[C@@H]5CCCNC5)n4)c3c2)cc1 [Example 316, (4-(3-(6-((3R)-3-piperidinyloxy)-2-pyrazinyl)-1H-indol-5-yl)phenyl)methanol] |  |  |  |  | 6.99 | 5.47 | 8.05 | 8.70
N#Cc1ccccc1-c1ccc2[nH]cc(-c3cncc(O[C@@H]4CCCNC4)n3)c2c1 [Example 326] |  |  |  |  | 6.50 | 5.14 | 8.00 | 8.52
CC(=O)Nc1ccc(-c2ccc3[nH]cc(-c4cncc(O[C@@H]5CCCNC5)n4)c3c2)cc1 [Example 327] |  |  |  |  | 6.18 | 5.09 | 7.72 | 8.30
c1cc2[nH]cc(-c3cncc(O[C@@H]4CCCNC4)n3)c2cc1-c1cnc2c(c1)CCCN2 [Example 335] |  |  |  |  | 5.97 | < 4.50 | 7.14 | 8.30
Cc1n[nH]c2ncc(-c3ccc4[nH]cc(-c5cncc(O[C@@H]6CCCNC6)n5)c4c3)cc12 [Example 339] |  |  |  |  | 5.59 | < 4.50 | 7.04 | 7.85

Next, values leading:

pIC50 [1, 5] | pIC50 [2, 6] | pIC50 ([3]; enzyme assay, Pim-2) | pIC50 ([4]; enzyme assay, Pim-1) | pIC50 [1, 7] | pIC50 [2, 8] | pIC50 [3] | pIC50 [4] | Structure (SMILES)
6.05 | < 4.50 | 8.52 | 9.00 |  |  |  |  | Nc1cncc(-c2ccc3[nH]nc(-c4cncc(N5CCC(N)CC5)n4)c3c2)c1 [Example 73, 5-(3-(6-(4-amino-1-piperidinyl)-2-pyrazinyl)-1H-indazol-5-yl)-3-pyridinamine]
6.77 | 5.11 | 8.15 | 9.00 |  |  |  |  | NC1CCN(c2cncc(-c3n[nH]c4ccc(-c5cccnc5)cc34)n2)CC1 [Example 82, 1-(6-(5-(3-pyridinyl)-1H-indazol-3-yl)-2-pyrazinyl)-4-piperidinamine]
 |  |  |  | 6.74 | 5.24 | 8.10 | 8.40 | C1=C(c2ccc3[nH]nc(-c4cncc(O[C@H]5CNCCC56CC6)n4)c3c2)CCOC1 [Example 263, 3-(6-((4R)-6-azaspiro[25]oct-4-yloxy)-2-pyrazinyl)-5-(3,6-dihydro-2H-pyran-4-yl)-1H-indazole 2,2,2-trifluoroacetate salt]
 |  |  |  | 6.50 | 5.19 | 7.96 | 8.40 | COc1cc(-c2ccc3[nH]cc(-c4cncc(O[C@@H]5CCCNC5)n4)c3c2)c(F)cn1 [Example 290]
 |  |  |  | 6.81 | 4.93 | 7.49 | 8.22 | c1cc2[nH]cc(-c3cncc(O[C@@H]4CCCNC4)n3)c2cc1-c1cnn(C2CC2)c1 [Example 291, 5-(1-cyclopropyl-1H-pyrazol-4-yl)-3-(6-((3R)-3-piperidinyloxy)-2-pyrazinyl)-1H-indole]
 |  |  |  | < 4.50 | < 4.50 | 7.22 | 7.80 | Oc1ncc(-c2ccc3[nH]cc(-c4cncc(O[C@@H]5CCCNC5)n4)c3c2)c(O)n1 [Example 293]
 |  |  |  | 6.90 | 4.77 | 7.74 | 8.40 | c1cc(N2CCOCC2)ccc1-c1ccc2[nH]cc(-c3cncc(O[C@@H]4CCCNC4)n3)c2c1 [Example 309, 5-(4-(4-morpholinyl)phenyl)-3-(6-((3R)-3-piperidinyloxy)-2-pyrazinyl)-1H-indole]
 |  |  |  | 6.39 | < 4.50 | 7.60 | 8.10 | O=C(Nc1ccc(-c2ccc3[nH]cc(-c4cncc(O[C@@H]5CCCNC5)n4)c3c2)cc1)C1CC1 [Example 311]
 |  |  |  | 6.18 | 4.63 | 7.72 | 8.30 | COc1ccc(-c2ccc3[nH]cc(-c4cncc(O[C@@H]5CCCNC5)n4)c3c2)cc1 [Example 321]
 |  |  |  | 6.02 | < 4.50 | 7.47 | 8.40 | CC(C)Oc1ccc(-c2ccc3[nH]cc(-c4cncc(O[C@@H]5CCCNC5)n4)c3c2)cc1 [Example 324]
 |  |  |  | 6.10 | < 5.00 | 7.40 | 7.96 | N#Cc1ncccc1-c1ccc2[nH]cc(-c3cncc(O[C@@H]4CCCNC4)n3)c2c1 [Example 333]
 |  |  |  | 6.07 | < 5.00 | 7.48 | 8.10 | c1cc2cc(-c3ccc4[nH]cc(-c5cncc(O[C@@H]6CCCNC6)n5)c4c3)cnc2[nH]1 [Example 336]
